Experimental data reported in patent publication US20230219886A1, “NOVEL SELENO-NSAID ANALOGS AND USES THEREOF” (THE PENN STATE RESEARCH FOUNDATION, priority 2020, published 2023).
Where two headings read alike, the source gives them in different places.

Tests used:
[1] = system: PANC-1 (pancreatic carcinoma); assay: MTT cell viability assay, Panc-1; details: for cell viability: 48 h
Experimental: (§1) Cell Culture Conditions. The cell lines were obtained from the American Type Culture Collection (ATCC). PANC-1 and Caco-2 cell lines were maintained in DMEM medium (Gibco); HT-29, HCT-116 and RKO cells were maintained in McCoy's 5A medium (Gibco); and DU-145 and H1299 cells were maintained in RPMI 1640 medium (Gibco), supplemented with 10% fetal bovine serum (FBS; Gibco) and 1% antibiotics (10.00 units/mL penicillin and 10.00 mg/mL streptomycin; Gibco). Cells were preserved in tissue culture flasks at 37° C. and 5% CO2. Culture medium was replaced every three days.
(§2) Cell Viability Assay. The effect of each compound on cell viability was tested using the MTT assay (81). Briefly, 9000 cells/well were grown in 96-well plates for 12 h. Then these cells were incubated with either DMSO (control) or nine different concentration between 0.01-50 μM of the test compounds for 24, 48, and 72 h. Three hours before the termination point, 20 μL of MTT were added to measure cellular viability. The resultant formazan crystals were dissolved in 50 μL of DMSO, and absorbance was measured at 570 nm and 630 nm wavelengths. IC50, GI50, TGI and LC50 values were calculated using OriginPro 8.5.1.
(§3) Evaluation of the antiproliferative activities of the novel molecules. […] These four cell lines were treated with each compound at three concentrations (5, 25 and 50 μM) for 48 h.

HT-29 (CRC) = assay: MTT cell viability assay, HT-29; details: for cell viability: 48 h; for CC50: read-out: LC50
Experimental: as §1, §2, §3

H1299 (lung carcinoma) = assay: MTT cell viability assay, H1299; details: for cell viability: 48 h
Experimental: as §1, §2, §3

CACO-2 CRC cells = assay: cells
Experimental: as §1, §2

RKO CRC cells = assay: cells
Experimental: as §1, §2

HT-29 cells [2] = assay: Cell cycle analysis by flow cytometry; format: cell-based, human; details: HT-29, 24 h; for population of cells in the S-phase: compared with vehicle; for population of cells in G1 and G2/M phases: compared with vehicle (DMSO)
Experimental: Cell Cycle Analysis. Cell cycle analyses were determined by following a flow cytometry protocol as described earlier (82). In brief, HT-29 cells were serum deprived for 72 hours to get them synchronized. At the end of 72 hours, cells were supplied with fresh medium or fresh medium with 1, 2.5, 5 and 10 μM of 1a and 6a for 24 hours. After each time point, the cells were fixed in ice cold 70% ethanol. Fixed cells were washed with 1×PBS and suspended in PI staining solution. PI staining solution was made by adding 0.1% (v/v) triton X-100, 20 mg of DNase-free RNase A, and 2 mg of PI in 100 mL of PBS. After staining for 15 min, the cells were analyzed by flow cytometer (Coulter Epics XL, Beckman Coulter).
Compounds 1a and 6a inhibited CRC cell growth by inducing cell cycle arrest. We investigated the effect 1a and 6a on the cell cycle by flow cytometry.

Cyclin B1 = assay: Western blot protein expression, Cyclin B1; format: cell-based, human; details: HT-29, IC50 dose, 12 h and 24 h
Experimental: (§4) Protein Expression Analysis. Western Blot was performed to assess the expression level of different proteins before and after treatment. In brief, HT-29 cells were treated with the compound for different time intervals and the whole-cell lysates were made by lysing cells using RIPA buffer (Thermo Scientific, USA). Protease (Roche, USA) and phosphatase inhibitor cocktails (Sigma-Aldrich, USA) were used to prevent the degradation of the proteins present in the lysate. The resulting lysates were incubated on ice for 30 min and spun at 10,000 rpm for 15 min to pellet down cell debris. The total protein concentration was determined using Bradford assay (Thermo Scientific, USA). Equal amounts of cell lysates were resolved using NuPAGE gel 4-12% (Life Technologies, Carlsbad, Calif.). The resolved proteins were electro-transferred to a PVDF membrane and different antibodies were used to probe the protein expression levels. Enhanced Chemiluminescent reagent (Life technologies, USA) was used to detect the protein of interest.
(§5) To further explore the underlying mechanism of the cell cycle arrest, we studied the expression levels of the different proteins involved in the cell cycle regulation. […] At both time intervals of 12 h and 24 h, the expression levels of cell cycle regulatory proteins cyclin E1 and cyclin B1 were inhibited while p21 was induced (FIG. 7B).

Cyclin E1 = assay: Western blot protein expression, Cyclin E1; format: cell-based, human; details: HT-29, IC50 dose, 12 h and 24 h
Experimental: as §4, §5

p21 = assay: Western blot protein expression, p21; format: cell-based, human; details: HT-29, IC50 dose, 12 h and 24 h
Experimental: as §4, §5

HT-29 cells [3] = assay: Caspase 3/7 assay; format: cell-based, human; details: HT29, 5 μM
Experimental: Apoptosis assay. Induction of apoptosis after the treatment with compounds 1a and 6a were analyzed using Annexin V & Dead cell assay kit and Caspase 3/7 Assay kit (EMD Millipore, Billercia, Mass.) using Muse cell analyzer following manufacturer's protocol. Briefly, the HT-29 cells were plated in triplicates in a six-well plate at densities of 1×10^5 cells/well. Following day, the cells were treated with the compounds 1a and 6a and incubated for 48 h. At the end of the treatment duration, the cells were prepared following manufacturer's guidelines and the data were acquired using Muse 1.4 software.
Compounds 1a and 6a induced apoptosis in CRC cells. We further investigated whether the inhibition of cell cycle leads to apoptosis. In pursuit of this, HT29 cells were treated with 5 μM of the compounds 1a and 6a for indicated time intervals. Apoptosis was measured by using Annexin V & Dead cell assay kit and Caspase 3/7 Assay kit using Muse cell analyzer following manufacturer's protocol. The live cell population resided in the lower left quadrant and they start shifting towards the lower right quadrant (early apoptotic) or to upper right quadrant (late apoptotic/dead) after treatments. […] A similar trend was also observed after 6a treatment where the live cell population were decreased from <75% to <65% after 12 h and 24 h treatment, respectively.

[4] = Homo sapiens, PANC-1, 48 h, read-out: cell viability
[5] = Homo sapiens, HT-29, 48 h, read-out: cell viability
[6] = Homo sapiens, NCI-H1299, 48 h, read-out: cell viability

C[Se]C(=O)CC1=C(C)/C(=C/c2ccc([S+](C)[O-])cc2)c2ccc(F)cc21 (stereo not drawn) [Compound 6a, Se-methyl (Z)-2-(5-fluoro-2-methyl-1-(4-(methylsulfinyl)benzylidene)-1H-indenyl)ethaneselenoate]
cell viability ([1]; Panc-1, 5 μM): 49.4 ± 20.1% | cell viability ([1]; Panc-1, 25 μM): 29.0 ± 9.5% | cell viability ([1]; Panc-1, 50 μM): 21.3 ± 9.2% | increase on cytotoxic potency compared with parent NSAID scaffolds (HT-29 (CRC); HT-29): three-fold | cell viability (HT-29 (CRC); HT-29, 5 μM): 22.9 ± 2.9% | cell viability (HT-29 (CRC); HT-29, 25 μM): 11.9 ± 6.6% | cell viability (HT-29 (CRC); HT-29, 50 μM): 11.1 ± 6.2% | GI50 (HT-29 (CRC); HT-29, 24 h): 1200 ± 1100 nM | IC50 (HT-29 (CRC); HT-29, 24 h): 2400 ± 300 nM | TGI (HT-29 (CRC); HT-29, 24 h): 9.9 ± 3.9 µM | GI50 (HT-29 (CRC); HT-29, 48 h): 1400 ± 700 nM | IC50 (HT-29 (CRC); HT-29, 48 h): 2000 ± 700 nM | TGI (HT-29 (CRC); HT-29, 48 h): 3.3 ± 0.3 µM | GI50 (HT-29 (CRC); HT-29, 72 h): 500 ± 500 nM | IC50 (HT-29 (CRC); HT-29, 72 h): 1400 ± 300 nM | TGI (HT-29 (CRC); HT-29, 72 h): 2.4 ± 0.4 µM | CC50 (HT-29 (CRC); HT-29, 24 h): > 50000 nM | CC50 (HT-29 (CRC); HT-29, 48 h): 10100 ± 5200 nM | CC50 (HT-29 (CRC); HT-29, 72 h): 6300 ± 700 nM | cell viability (H1299 (lung carcinoma); H1299, 5 μM): 53.4 ± 20.2% | cell viability (H1299 (lung carcinoma); H1299, 25 μM): 41.9 ± 14.9% | cell viability (H1299 (lung carcinoma); H1299, 50 μM): 31.3 ± 6.4% | IC50 (CACO-2 CRC cells; CACO-2, 24 h): 3000 ± 500 nM | IC50 (CACO-2 CRC cells; CACO-2, 48 h): 1300 ± 600 nM | IC50 (CACO-2 CRC cells; CACO-2, 72 h): 700 ± 200 nM | IC50 (RKO CRC cells; RKO, 24 h): > 50 µM | IC50 (RKO CRC cells; RKO, 48 h): 17.2 ± 2.4 µM | IC50 (RKO CRC cells; RKO, 72 h): 17.3 ± 0.8 µM | population of cells in the S-phase (HT-29 cells [2]): drastically reduced | population of cells in G1 and G2/M phases (HT-29 cells [2]): increase | expression level of Cyclin B1 (Cyclin B1): went down substantially | expression level of Cyclin E1 (Cyclin E1): went down substantially | expression level of p21 (p21): sharp increase | apoptotic cell population (HT-29 cells [3]): time dependent increase

C[Se]C(=O)c1ccccc1OC(C)=O [Compound 1a, 2-((methylselanyl)carbonyl)phenyl acetate]
viability at 5 µM [1, 4]: 43.7 ± 12.1% | viability at 25 µM [1, 4]: 36.9 ± 6.3% | viability at 50 µM [1, 4]: 36.8 ± 6.8% | increase on cytotoxic potency compared with parent NSAID scaffolds (HT-29 (CRC)): three-fold | TGI (HT-29 (CRC); HT-29, 24 h): 0.5 ± 0.3 µM | TGI (HT-29 (CRC); HT-29, 48 h): 0.2 ± 0.1 µM | TGI (HT-29 (CRC); HT-29, 72 h): 0.7 ± 0.3 µM | GI50 (HT-29 (CRC); Homo sapiens, HT-29, 24 h): 100 ± 100 nM | IC50 (HT-29 (CRC); Homo sapiens, HT-29, 24 h): 1900 ± 600 nM | CC50 (HT-29 (CRC); Homo sapiens, HT-29, 24 h): 1700 ± 1600 nM | GI50 (HT-29 (CRC); Homo sapiens, HT-29, 48 h): 100 ± 100 nM | IC50 (HT-29 (CRC); Homo sapiens, HT-29, 48 h): 1200 ± 100 nM | CC50 (HT-29 (CRC); Homo sapiens, HT-29, 48 h): 700 ± 100 nM | viability at 5 µM (HT-29 (CRC); [5]): 20.8 ± 5.6% | viability at 25 µM (HT-29 (CRC); [5]): 18.5 ± 4.1% | viability at 50 µM (HT-29 (CRC); [5]): 17.7 ± 12.6% | GI50 (HT-29 (CRC); Homo sapiens, HT-29, 72 h): 200 ± 100 nM | IC50 (HT-29 (CRC); Homo sapiens, HT-29, 72 h): 1200 ± 400 nM | CC50 (HT-29 (CRC); Homo sapiens, HT-29, 72 h): 2500 ± 1400 nM | cytotoxicity at 5 µM (HT-29 (CRC); Homo sapiens, HT-29, read-out: inhibition in cell viability): 75 to 80% | viability at 5 µM (H1299 (lung carcinoma); [6]): 48.7 ± 5% | viability at 25 µM (H1299 (lung carcinoma); [6]): 41.6 ± 7.2% | viability at 50 µM (H1299 (lung carcinoma); [6]): 31.4 ± 7.7% | IC50 (CACO-2 CRC cells; Homo sapiens, Caco-2, 24 h): 2600 ± 200 nM | IC50 (CACO-2 CRC cells; Homo sapiens, Caco-2, 48 h): 900 ± 100 nM | IC50 (CACO-2 CRC cells; Homo sapiens, Caco-2, 72 h): 800 ± 100 nM | IC50 (RKO CRC cells; Homo sapiens, 24 h): > 50 µM | IC50 (RKO CRC cells; Homo sapiens, 48 h): > 50 µM | IC50 (RKO CRC cells; Homo sapiens, 72 h): > 50 µM | population of cells in the S-phase (HT-29 cells [2]): drastically reduced | population of cells in G1 and G2/M phases (HT-29 cells [2]): increase | expression level of Cyclin B1 (Cyclin B1): went down substantially | expression level of Cyclin E1 (Cyclin E1): went down substantially | expression level of p21 (p21): sharp increase | apoptotic cell population (HT-29 cells [3]): time dependent increase
